Source: patent US5776461A, “Cosmetic compositions containing phytovitamin D” (Chesebrough-Pond's USA Co., Division of Conopco, Inc., priority 1996, dated 1998)
“Also recorded” adds a separate entry of the source.

What was measured:
HL-60 cells = experiment: HL-60 cell differentiation assay (nonspecific esterase expression); assay type: cell-based; conditions: for % differentiation: 48 hrs; for HL-60 differentiation activity (in words): pure vitamin D compounds
Text: This test can be utilized to assess the vitamin D content of plant extracts after converting the glycosides and other hydroxylated forms of vitamin D to 1,25-(OH)2 D. One can achieve this by following the procedure: [drawing 2] Glycosidases cleave vitamin D glycosides to the aglycone form (free steroid form). […] This can be again extracted into chloroform phase and redissolved in ethanol and tested in the HL-60 cell differentiation assay. Using this procedure, the glycosylated and nonglycosylated forms of 25-D and 1,25-(OH)2 D of both vitamin D2 and D3 can be quantitated in HL-60 cell differentiation assay.
a. Plant Extract preparation: The plant extracts are prepared by extracting the dry plant powders with ethanol or other solvents by stirring 1 part of the plant material with 5 to 10 parts of the solvent for 3 to 18 hours at room temperature. Suitable solvents are described hereinbelow. The extracts are clarified by filtration, then dried by evaporation to obtain a dried plant extract.
b. Treatment of Dried Plant Extracts with Glycosidase: 50 mg of dried plant extract are resuspended in 4 ml citrate-phosphate buffer and incubated overnight with a glycosidase enzyme (e.g., from an almond meal extract). After incubation, the mixture is extracted with chloroform. The chloroform phase containing the nonglycosylated vitamin D compounds is dried and resuspended in ethanol at a concentration of 5 mg/ml of ethanol.
c. Hydroxylase Treatment of product of step (b) (Non-Glycosylated Vitamin D Compounds): Human keratinocytes in culture express high amounts of 25(OH) vitamin D 1-a hydroxylase activity. For converting into the 1,25-(OH)2 D, which is detected by the product of step (b) in the HL-60 assay, is treated with a keratinocyte homogenate for 1 hour at 37° C. (50 μl of the product of step b with 1 ml of cell homogenate containing 100-200 μg cell protein). After the treatment, the mixture is extracted with chloroform:methanol (1:1), the chloroform phase is dried down, resuspended in ethanol and used in the HL-60 cell differentiation assay.
d. HL-60 Cell Differentiation Assay: The differentiation of HL-60 cells can be assessed by a simple cytochemical method for the expression of non-specific esterase activity (expressed only in the differentiated monocyte/macrophage phenotype) using α-naphthyl acetate as a substrate. HL-60 cell line is obtained (e.g. from American Type Culture Collection (ATCC)) and cultures are established in the laboratory (e.g. using RPMI medium containing 20% fetal calf serum (FCS)). For incubation with the different plant extracts, cells are washed in phosphate buffered saline (PBS), then resuspended in RPMI medium containing 10% FCS and plated at a density of 750,000 cells per 1 ml in 6 well plates. The plates are then treated with either standard 1,25-(OH)2 D (0.1 to 100 nM) or the different plant extracts in ethanol, using a maximum ethanol concentration of 5 μl/ml of medium. The cells are treated for 48 hrs before processing for the esterase cytochemical assay.
Expression of nonspecific esterase in HL-60 cells is determined after mounting the cells onto slides using Cytospin. The slides are then fixed in citrateacetone-methanol for 1 min at room temperature, washed in deionized water and air dried for 20 min. The substrate solution for esterase is prepared according to the procedure provided by Sigma by adding 1 capsule of Fast Blue RR salt to 50 ml Trizma buffer (pH 7.6)and 2 ml of α-naphthyl acetate solution. The slides are incubated at 37° C. in this solution for 30 min in the dark. The slides are washed for 3 min in water, counterstained using Mayer's Hematoxylin solution air dried and viewed under microscope. The number of cells showing dark brown precipitate indicating esterase activity is counted and calculated as a percent of the total number of cells in 6 different areas of the slide (approximately 500 total cells).

[1] = tested on: adult human keratinocytes; experiment: cornified envelope formation of adult human keratinocytes; assay type: cell-based; conditions: Table 6; no almond meal extract, 48 hrs; 1,25-OH2 D at 1 nM
Experimental: In this method, keratinocytes were treated with the various extracts dissolved in ethanol (as described for the HL-60 assay) for 48 hrs in the presence of 5 uCi of 35S methionine included in the medium. The labelled methionine gets incorporated into the newly synthesized proteins during this 48 hr. period, including the proteins required for the formation of cornified envelopes. […] This treatment allows Ca to flow into the cells, maximally activate the enzyme transglutaminase and crosslinks all the labelled cornified envelope precursor proteins to form labelled cornified envelopes. The cells were then dissolved in 2%SDS/40 mM DTT, and the amount of insoluble cornified envelopes was quantitated by scintillation counting after separating from the soluble proteins by filtration on 0.2 micron filters.

[2] = tested on: vitamin D binding protein; conditions: 25-D = 100%; cited from earlier work
[3] = tested on: Cultured Human Keratinocytes; conditions: cited from earlier work
keratinocyte = conditions: cited from earlier work

Molecule | % differentiation (HL-60 cells; 0.1 nM) | % differentiation (HL-60 cells; 1 nM) | % differentiation (HL-60 cells; 10 nM) | % differentiation (HL-60 cells; 100 nM) | HL-60 differentiation activity (in words) (HL-60 cells) | detection (cross-reactivity) in vitamin D binding assay [2] | also measured
C=C1/C(=C\C=C2/CCC[C@]3(C)[C@@H]([C@H](C)CCCC(C)(C)O)CC[C@@H]23)C[C@@H](O)C[C@@H]1O [1,25-(OH)2 D, 1,25-Dihydroxyvitamin D3] | 5% | 50% | 90% | 95% | induces HL-60 cell differentiation in a dose-dependent manner; also recorded: promoted | 4% | lowest concentration at which differentiation ability could be detected (HL-60 cells; HL-60, 48 hrs): 0.1 nM; EC50 (HL-60 cells; HL-60, 48 hrs, read-out: concentration for half maximal differentiation): 1 nM; cornified envelope formation, no hydrolysis [1]: 207.6 % of control
C=C1CC[C@H](O)C/C1=C/C=C1\CCC[C@]2(C)[C@@H]([C@H](C)CCCC(C)C)CC[C@@H]12 [Vitamin D3, cholecalciferol] | 0% | 0% | 0% | 0% |  |  | conversion in skin to 25-D (in words) [3]: nor is it converted in the skin to 25-D; keratinocyte prodifferentiating activity (in words) (keratinocyte; applied topically to skin): neither has keratinocyte prodifferentiating activity
Vitamin D |  |  |  |  |  | 0.4% | HL-60 differentiation activity (in words) (HL-60 cells; listed as non-hydroxylated vitamin D): inactive at all concentrations; HL-60 differentiation activity (in words) (HL-60 cells; listed as nonhydroxylated vitamin D): do not induce its differentiation; biological activity (in words) (keratinocyte; vitamin D per se): biologically inactive
C=C1/C(=C\C=C2/CCC[C@]3(C)[C@@H]([C@H](C)CCC(O)C(C)(C)O)CC[C@@H]23)C[C@@H](O)CC1O (stereo partly drawn) [1,24,25-D(OH)3] |  |  |  |  | inactive at all concentrations |  | 
C=C1CC[C@H](O)C/C1=C/C=C1\CCC[C@]2(C)[C@@H]([C@H](C)CCCC(C)(C)O)CC[C@@H]12 [25-D, 25-hydroxycholecalciferol] |  | 0% | 0% | 0% | inactive at all concentrations | 100% | HL-60 differentiation activity (in words) (HL-60 cells; listed as 25D): do not induce its differentiation
C=C1CC[C@H](O)C/C1=C/C=C1\CCC[C@]2(C)[C@@H]([C@H](C)CCC(O)C(C)(C)O)CC[C@@H]12 (stereo partly drawn) [24,25(OH)2 D] |  |  |  |  |  | 70% | 
